Earlier results, collected in patent US20110144117A1, “Pharmaceutical Dosage Form Containing Tetrahydrobiopterin” (OrPha Swiss GmbH, priority 2008, published 2011).

Experiments:
[1] = tested on: patients exhibiting mutations in the PAH gene; conditions: dietary supplementation, patients with mutations in the PAH gene (Kure et al.)
[2] = in pure water
[3] = tested on: patient with a dihydrobiopterin deficiency; conditions: single dose, patient with dihydrobiopterin deficiency (Niederwieser et al.)

| SMILES | phenylalanine blood plasma concentration [1] | solubility [2] | symptoms of hyperphenylalaninemia [3] |
| --- | --- | --- | --- |
| CC(O)C(O)C1CNc2nc(N)[nH]c(=O)c2N1 (stereo not drawn) [tetrahydrobiopterin, 5,6,7,8-tetrahydro-biopterin] | reduces |  |  |
| C[C@H](O)C(=O)C1=Nc2c(nc(N)[nH]c2=O)NC1 [L-sepiapterin] |  | 0.17 g/100 g H2O | transiently disappeared |
